# Patent US20230321012A1 (priority 2021, published 2023)
# Several values for one entry are separate records, joined by “and”; a condition that tells them apart may be missing. Identical values can stand only once. Like-named read-outs stand apart in the source and are kept apart here.
# How the values were obtained:
# [1] = Clinical safety and tolerability, dose-limiting toxicities (NCT03536728); format: in vivo
# Excerpt: Clinical Trial Outline. […] All solid tumor types are eligible for the trial. […] DFMO was delivered orally twice daily in gel capsules.
# These DLTs involved vomiting, diarrhea and nausea, and inferred a potential dual drug targeting of the gastrointestinal (GI) tract in these patients. One patient experienced severe dehydration, requiring hospitalization. A similar observation was made in dogs in Aminex's 28-day toxicological testing. […] The clinical observations and the data obtained in dog studies, together, support the hypothesis that combined oral drug dosing levels and DFMO targeting of the GI tract are causing the intolerance.
# In cohorts before Part 2, Cohort 4, 14 adults were treated at 1,200 mg or higher of AMXT 1501 daily, either once daily or BID, with no DLTs. A total of 18 patients were treated at 800 mg AMXT 1501 or higher daily with no DLTs. These patients included a couple of adult patients where Cmax values above 1,000 ng/mL AMXT 1501 plasma levels were observed, again with no DLTs observed.
# four tumor cell lines [2] = experiment: In vitro tumor cell growth inhibition by AMXT 1501; format: cell-based; details: equivalent of 51 nM
# Excerpt: See Burns, M. R., et al., J Med Chem 52, 1983-1993 (2009), the entire content of which is incorporated herein by reference.
# spermidine = experiment: MALDI-FTICR imaging quantitation of PD marker spermidine in whole-body sections of Th-MYCN mice; format: in vivo, mouse; details: for Quantitation of spermidine in the whole-body section: Th-MYCN mice, one value per animal
# Protocol: (§1) The lower limit of detection based on the calibration curve using labeled spermidine was 0.80 μg/g, while for spermine it was 1.10 μg/g.
# spermine = experiment: MALDI-FTICR imaging quantitation of PD marker spermine in whole-body sections of Th-MYCN mice; format: in vivo, mouse
# Protocol: as §1
# four tumor cell lines [3] = details: average, growth of four cell lines in culture; read-out: in vitro EC50 against cancer cells; cited from earlier work
# in vivo = details: male, Th-MYCN, mouse
# Protocol: Male Th-MYCN mice, approximately 5-6 weeks of age, with spontaneous neuroblastoma tumor development commenced treatment according to Table 6.1 when tumors were approximately 5 mm in size. […] Time point: three treatments, cull 24 hours after last treatment in the morning.
# Sample Preparation. Animals were euthanized on the morning of the 4th day, after three days of treatment and shaved, and then the carcasses were frozen. Tissues stored at −80° C. were placed inside the cryostat. The temperature of the cryostat was maintained around −20° C. and −40° C. 20-am tissue sections in the sagittal plane going through the left eye were obtained for each carcass. Tissue sections were mounted directly on indium tin oxide (ITO) slides.
# Tissue sections on ITO slides were placed in a desiccator for 15 minutes before matrix deposition. An image of the slides was then acquired with a scanner to synchronize positions of the tissue sections with the target of the laser.
# Dilution series of the test items were prepared in water from the stock solutions. […] A spot of pure solvent was added as a negative control. Slides were then placed in a desiccator for 15 minutes before MALDI matrix deposition. The control liver tissue consisted of a liver homogenate spiked with an olanzapine standard at 40 g/g of tissue. Sections of the liver homogenate were prepared and added on each ITO slide in order to monitor the signal of the FTICR through the different acquisitions and thus validate the comparison between slides.
# For AMXT 1501, 2,5-dihydroxybenzoic acid (DHB) at 40 mg/ml in 1:1 MeOH/H2O with 1% trifluoroacetic acid (TFA) and 25 nM of ^13C4-AMXT 1501 was sprayed on the samples with an automatic sprayer (TM-Sprayer, HTX-Imaging).
# The mass spectrometry imaging (MSI) acquisitions were performed using the parameters in Table 6.2 with a data reduction parameter set at 95%. MSI data were acquired and analyzed with FlexImaging 4.1 (Bruker Daltonics), Data Analysis 4.0 (Bruker Daltonics) and Multimaging™ 1.2.2 (ImaBioTech).
# Intensity scales representing the molecular signal were adjusted for each image to discriminate the noise from the molecular signal but also to give the best visualization of the signal across the sections. […] Convolution step was performed on the original images using a normalized uniform kernel, which averages the values around a position. The kernel size was manually optimized for the analysis, minimizing the background noise. Based on the MSI data set on the tissue sections and the dilution series, the quantitation of the test items was performed with the IS approach. A correlation between the calibration curve and the signal obtained on the tissues was performed in order to determine the concentration of the test items per histological structure in g/g of tissue and μM.
# [4] = raw determination, individual Th-MYCN mice, 96 h
# [5] = raw determination, treatment group average, 96 h
structure (smiles),measurement,setting,value
"CCCCCCCCCCCCCCCC(=O)NCCCC[C@@H](N)C(=O)NCCCNCCCCNCCCN [AMXT 1501, D-lys(palmitoyl)-spermine]",dose-limiting toxicities,"[1]; 14 adults at 1,200 mg or higher of AMXT 1501 daily, QD or BID, cohorts before Part 2 Cohort 4",no DLTs
same,dose-limiting toxicities,[1]; 18 patients at 800 mg AMXT 1501 or higher daily,no DLTs
same,EC50 expressed per tissue weight,four tumor cell lines [2],0.029 µg/g
same,EC50,four tumor cell lines [2]; read-out: EC50 as equivalent plasma concentration,0.028 µg/mL
same,Quantitation of spermidine in the whole-body section,spermidine; Eye,3.21 µM
same,Quantitation of spermidine in the whole-body section,spermidine; Intestine contents,6.36 µM and 9.59 µM
same,Quantitation of spermidine in the whole-body section,spermidine; Stomach contents,2.05 µM and 0.00 µM
same,Quantitation of spermidine in the whole-body section,spermidine; Tumor,1.32 µM
same,Quantitation of spermidine in the whole-body section,spermidine; White fat,5.26 µM
same,"spermidine level in tumor, comparison of groups","spermidine; mouse, in vivo",lowest levels
same,"Spermidine concentration in tumor, Values",spermidine; [4],BLOD and 1.32 μM
same,"Spermidine concentration in tumor, Average",spermidine; [5],1.32 µM
same,spermidine in eye,spermidine; vehicle 9.14 μM,3 µM
same,Quantitation of spermine in the whole-body section,"spermine; Eye, Th-MYCN mice, one value per animal",4.19 µM and 5.03 µM
same,spermine in lung,spermine; group average,low
same,"spermine level in tumor, comparison of groups","spermine; mouse, in vivo",lowest levels
same,"Spermine concentration in tumor, Value",spermine; [4],BLOD
same,"Spermine concentration in tumor, Average",spermine; [5],BLOD
same,spermine in eye,spermine; vehicle 17.6 μM,around 5 μM
same,EC50,four tumor cell lines [3],51 nM
same,concentration at 96 h,"in vivo; brown fat, sc, 2.5 mg/kg",8330 ng/g
same,concentration at 96 h,"in vivo; cardiac blood, sc, 2.5 mg/kg",8370 ng/g
same,concentration at 96 h,"in vivo; eye, sc, 2.5 mg/kg",9300 ng/g
same,concentration at 96 h,"in vivo; intestine contents, sc, 2.5 mg/kg",8470 ng/g
same,concentration at 96 h,"in vivo; intestine wall, sc, 2.5 mg/kg",9000 ng/g
same,concentration at 96 h,"in vivo; intestine wall, subcutaneous, 2.5 mg/kg",11400 ng/g
same,concentration at 96 h,"in vivo; kidney, sc, 2.5 mg/kg",5640 ng/g
same,concentration at 96 h,"in vivo; kidney, subcutaneous, 2.5 mg/kg",12100 ng/g
same,concentration at 96 h,"in vivo; liver, sc, 2.5 mg/kg",8870 ng/g
same,concentration at 96 h,"in vivo; liver, subcutaneous, 2.5 mg/kg",9530 ng/g
same,concentration at 96 h,"in vivo; lung, sc, 2.5 mg/kg",14500 ng/g
same,concentration at 96 h,"in vivo; lung, subcutaneous, 2.5 mg/kg",17000 ng/g
same,concentration at 96 h,"in vivo; myocardium, sc, 2.5 mg/kg",8440 ng/g
same,concentration at 96 h,"in vivo; myocardium, subcutaneous, 2.5 mg/kg",9590 ng/g
same,concentration at 24 h,"in vivo; organs (range across organs), subcutaneous, 2.5 mg/kg",3360 ng/g to 17000 ng/g and 5.9 µM to 29.9 µM
same,concentration at 24 h,"in vivo; organs, range from intestine contents to lung, subcutaneous, 2.5 mg/kg",3360 to 17000 ng/g
same,concentration at 96 h,"in vivo; pancreas, sc, 2.5 mg/kg",8430 ng/g
same,concentration at 96 h,"in vivo; pancreas, subcutaneous, 2.5 mg/kg",8540 ng/g
same,concentration at 96 h,"in vivo; spleen, subcutaneous, 2.5 mg/kg",12900 ng/g
same,concentration at 96 h,"in vivo; stomach contents, sc, 2.5 mg/kg",8800 ng/g
same,concentration at 96 h,"in vivo; stomach contents, subcutaneous, 2.5 mg/kg",8480 ng/g
same,concentration at 96 h,"in vivo; stomach wall, sc, 2.5 mg/kg",8550 ng/g
same,concentration at 96 h,"in vivo; stomach wall, subcutaneous, 2.5 mg/kg",8810 ng/g
same,concentration at 96 h,"in vivo; testis, sc, 2.5 mg/kg",9160 ng/g
same,concentration at 96 h,"in vivo; testis, subcutaneous, 2.5 mg/kg",9820 ng/g
same,concentration at 96 h,"in vivo; thymus, sc, 2.5 mg/kg",10700 ng/g
same,concentration at 96 h,"in vivo; thymus, subcutaneous, 2.5 mg/kg",13900 ng/g
same,concentration at 96 h,"in vivo; tumor, sc, 2.5 mg/kg",10000 ng/g
same,concentration at 24 h,"in vivo; tumor, subcutaneous",12.7 µM
same,concentration at 24 h,"in vivo; tumor, subcutaneous, 2.5 mg/kg",7230 ng/mL and 10000 ng/g and 17.6 µM
